The target in experiment [1] is furin (recombinant soluble hfurin) (Homo sapiens, UniProt P09958). As to the kind of experiment: Inhibition assay of furin with fluorogenic substrate Pyr-RTKR-MCA. In kind it is biochemical. To be noted: up to 100 μM heparin (20 μM or 100 μM); fluorescence.
In experiment [2] the test system is gp160 processing. The following applies: cell-permeable peptide; cited from earlier work.

Chain of furin (recombinant soluble hfurin) (P09958 108-715 limits assumed): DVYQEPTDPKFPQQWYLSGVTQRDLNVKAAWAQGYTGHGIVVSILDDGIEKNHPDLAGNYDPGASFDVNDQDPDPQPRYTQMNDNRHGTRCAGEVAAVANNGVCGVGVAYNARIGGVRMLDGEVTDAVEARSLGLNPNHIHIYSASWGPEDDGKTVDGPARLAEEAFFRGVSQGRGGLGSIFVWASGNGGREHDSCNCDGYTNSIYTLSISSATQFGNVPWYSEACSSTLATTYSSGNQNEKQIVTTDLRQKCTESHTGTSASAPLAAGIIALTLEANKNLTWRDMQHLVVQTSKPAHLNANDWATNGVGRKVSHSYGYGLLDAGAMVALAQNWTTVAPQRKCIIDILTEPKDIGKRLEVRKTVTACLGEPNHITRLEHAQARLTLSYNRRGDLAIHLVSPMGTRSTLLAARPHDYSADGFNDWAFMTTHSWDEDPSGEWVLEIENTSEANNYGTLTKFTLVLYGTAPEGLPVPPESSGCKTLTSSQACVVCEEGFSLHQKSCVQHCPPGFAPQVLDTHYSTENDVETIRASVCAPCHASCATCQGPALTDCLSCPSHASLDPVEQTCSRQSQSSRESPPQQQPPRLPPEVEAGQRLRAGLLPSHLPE

With heparin, the “Influence on furin activity on Pyr-RTKR-MCA processing” value in experiment [1] is on record as “did not influence furin activity”.

Regarding KIEPLGVAPTKAKRRVVQREKR [22mer], in experiment [2], the “Interference with gp160 processing” value is “interferes with gp160 processing”.

The record behind these values is article PMC7125586 (Febs Letters, 2007).
